US20230159496A1, “COMPOUNDS AND METHODS FOR MODULATING SPLICING” (REMIX THERAPEUTICS INC., priority 2020, published 2023)
Read-outs that look alike come from different tables or passages of the source.

Columns and labels:
Assay type in all cases: cell-based
[1] = test system: HTT mRNA; test: Splicing assay (RT-qPCR) monitoring HTT canonical junction (CJ) and alternative junction (AJ) mRNA isoforms; settings: A673 or K562 cells, 24 h treatment, top dose 10 uM
Method: Compounds described herein were used to modulate RNA transcript abundance in cells. The expression of a target mRNA was measured by detecting the formation of an exon-exon junction in the canonical transcript (CJ). A compound mediated exon-inclusion event was detected by observing an increase in formation of a new junction with an alternative exon (AJ). Real-time qPCR assays were used to detect these splicing switches and interrogate the potency of various compounds towards different target genes. A high-throughput real time quantitative PCR (RT-qPCR) assay was developed to measure these two isoforms of the mRNA (CJ and AJ) for an exemplary gene, HTT, together with a control housekeeping gene, GAPDH or GUSB or PPIA, used for normalization. Briefly, the A673 or K562 cell line was treated with various compounds described herein (e.g., compounds of Formula (I)). After treatment, the levels of the HTT mRNA targets were determined from each sample of cell lysate by cDNA synthesis followed by qPCR.
• Cells-to-CT 1-step kit: ThermoFisher A25602, Cells-to-CT lysis reagent: ThermoFisher 4391851C, TaqMan™ Fast Virus 1-Step Master Mix: ThermoFisher 4444436 • GAPDH: VIC-PL, ThermoFisher 4326317E (Assay: Hs99999905_m1)—used for K562/suspension cell lines • GUSB: VIC-PL, ThermoFisher 4326320E (Assay: Hs99999908_m1)—used for K562/suspension cell lines • PPIA: VIC-PL, ThermoFisher 4326316E (Assay: Hs99999904_m1) — used for A673/adherent cell lines
The A673 cell line was cultured in DMEM with 10% FBS. Cells were diluted with full growth media and plated in a 96-well plate (15,000 cells in 100 ul media per well). The plate was incubated at 37° C. with 5% CO2 for 24 hours to allow cells to adhere. An 11-point 3-fold serial dilution of the compounds was made in DMSO then diluted in media in an intermediate plate. Compounds were transferred from the intermediate plate to the cell plate with the top dose at a final concentration of 10 uM in the well. Final DMSO concentration was kept at or below 0.25%. The cell plate was returned to the incubator at 37° C. with 5% CO2 for an additional 24 hours.
The K562 cell line was cultured in IMDM with 10% FBS. For K562, cells were diluted with full growth media and plated in either a 96-well plate (50,000 cells in 50 uL media per well) or a 384-well plate (8,000-40,000 cells in 45 uL media per well). An 11-point 3-fold serial dilution of the compounds were made in DMSO then diluted in media in an intermediate plate. Compound was transferred from the intermediate plate to the cell plate with the top dose at a final concentration of 10 uM in the well. Final DMSO concentration was kept at or below 0.25%. Final volume was 100 uL for 96-well plate and 50 uL for 384-well plate. The cell plate was then placed in an incubator at 37° C. with 5% CO2 for 24 hours.
The cells were then gently washed with 50 uL-100 uL cold PBS before proceeding to addition of lysis buffer. 30 uL-50 uL of room temperature lysis buffer with DNAse I (and optionally RNAsin) was added to each well. Cells were shaken/mixed thoroughly at room temperature for 5-10 minutes for lysis to take place and then 3 uL-5 uL of room temperature stop solution was added and wells were shaken/mixed again. After 2-5 minutes, the cell lysate plate was transferred to ice for RT-qPCR reaction setup. The lysates could also be frozen at −80° C. for later use.
In some cases, a direct lysis buffer was used. An appropriate volume of 3× lysis buffer (10 mM Tris, 150 mM NaCl, 1.5%-2.5% Igepal and 0.1-1 U/uL RNAsin, pH 7.4) was directly added to either K562 or A673 cells in media and mixed by pipetting 3 times. The plates were then incubated at room temperature with shaking/rocking for 20-50 minutes to allow for lysis to take place. After this time, the cell lysate plate was transferred to ice to set up for the RT-qPCR reactions. The lysates could also be frozen at −80° C. for later use. […]

[2] = test system: HTT CJ mRNA; test: Gene panel canonical junction qPCR assay, HTT; settings: decrease in CJ mRNA levels, gene panel; read-out: HTT IC50
Method: (§1) The expression of a target mRNA was measured by detecting the formation of an exon-exon junction in the canonical transcript (CJ). A compound mediated exon-inclusion event was detected by observing an increase in formation of a new junction with an alternative exon (AJ). Real-time qPCR assays were used to detect these splicing switches and interrogate the potency of various compounds towards different target genes. A high-throughput real time quantitative PCR (RT-qPCR) assay was developed to measure these two isoforms of the mRNA (CJ and AJ) for an exemplary gene, HTT, together with a control housekeeping gene, GAPDH or GUSB or PPIA, used for normalization. Briefly, the A673 or K562 cell line was treated with various compounds described herein (e.g., compounds of Formula (I)). After treatment, the levels of the HTT mRNA targets were determined from each sample of cell lysate by cDNA synthesis followed by qPCR. The A673 cell line was cultured in DMEM with 10% FBS. Cells were diluted with full growth media and plated in a 96-well plate (15,000 cells in 100 ul media per well). The plate was incubated at 37° C. with 5% CO2 for 24 hours to allow cells to adhere. An 11-point 3-fold serial dilution of the compounds was made in DMSO then diluted in media in an intermediate plate. Compounds were transferred from the intermediate plate to the cell plate with the top dose at a final concentration of 10 uM in the well. Final DMSO concentration was kept at or below 0.25%. The cell plate was returned to the incubator at 37° C. with 5% CO2 for an additional 24 hours. The K562 cell line was cultured in IMDM with 10% FBS. For K562, cells were diluted with full growth media and plated in either a 96-well plate (50,000 cells in 50 uL media per well) or a 384-well plate (8,000-40,000 cells in 45 uL media per well). An 11-point 3-fold serial dilution of the compounds were made in DMSO then diluted in media in an intermediate plate. Compound was transferred from the intermediate plate to the cell plate with the top dose at a final concentration of 10 uM in the well. Final DMSO concentration was kept at or below 0.25%. Final volume was 100 uL for 96-well plate and 50 uL for 384-well plate. The cell plate was then placed in an incubator at 37° C. with 5% CO2 for 24 hours. The cells were then gently washed with 50 uL-100 uL cold PBS before proceeding to addition of lysis buffer. 30 uL-50 uL of room temperature lysis buffer with DNAse I (and optionally RNAsin) was added to each well. Cells were shaken/mixed thoroughly at room temperature for 5-10 minutes for lysis to take place and then 3 uL-5 uL of room temperature stop solution was added and wells were shaken/mixed again. After 2-5 minutes, the cell lysate plate was transferred to ice for RT-qPCR reaction setup. The lysates could also be frozen at −80° C. for later use. In some cases, a direct lysis buffer was used. An appropriate volume of 3× lysis buffer (10 mM Tris, 150 mM NaCl, 1.5%-2.5% Igepal and 0.1-1 U/uL RNAsin, pH 7.4) was directly added to either K562 or A673 cells in media and mixed by pipetting 3 times. The plates were then incubated at room temperature with shaking/rocking for 20-50 minutes to allow for lysis to take place. After this time, the cell lysate plate was transferred to ice to set up for the RT-qPCR reactions. The lysates could also be frozen at −80° C. for later use. To set up 10 uL RT-qPCR reactions, cell lysates were transferred to 384-well qPCR plates containing the master mix according to the table below. The plates were sealed, gently vortexed, and spun down before the run. The volumes were adjusted accordingly in some instances where the reaction was carried in 20 uL. The table below summarizes the components of the RT-qPCR reactions: The RT-qPCR reaction was performed using a QuantStudio (ThermoFisher) under the following fast cycling conditions. All samples and standards were analyzed at least in duplicate.

[3] = test system: SMN2 CJ mRNA; test: Gene panel canonical junction qPCR assay, SMN2; settings: decrease in CJ mRNA levels, gene panel; read-out: SMN2 IC50
Method: as §1

[4] = test system: Target C CJ mRNA; test: Gene panel canonical junction qPCR assay, Target C; settings: decrease in CJ mRNA levels, gene panel; read-out: Target C IC50
Method: as §1

[5] = decrease in CJ mRNA (50% response), read-out: HTT CJ AC50
[6] = increase in AJ mRNA (50% response), read-out: HTT AJ AC50

IC50 [2] [µM] | IC50 [3] [µM] | IC50 [4] [µM] | Compound | AC50 [1, 5] [µM] | AC50 [1, 6] [µM]
0.1 to 1 | 0.1 to 1 | 0.1 to 1 | Cc1cn2nc(-c3ccc4c(=O)n(C5CCN(C)CC5)cnc4c3F)cc(C)c2n1 [Compound 290, 7-(2,8-dimethylimidazo[1,2-b]pyridazin-6-yl)-8-fluoro-3-(1-methylpiperidin-4-yl)quinazolin-4(3H)-one] | 0.1 to 1 | 0.1 to 1
> 10 | 1 to 10 | > 10 | Cc1cn2nc(-c3ccc4c(c3)CCN(C3CCNC3)C4=O)cc(C)c2n1 (stereo not drawn) [Compound 269, 6-{2,8-dimethylimidazo[1,2-b]pyridazin-6-yl}-2-(pyrrolidin-3-yl)-3,4-dihydroisoquinolin-1-one] | > 10 | > 10
1 to 10 | < 0.1 | > 10 | Cc1nc2c(F)cc(-c3ccc4c(=O)n(C5CCNCC5)cnc4c3)cc2s1 [Compound 285] | 1 to 10 | > 10
< 0.1 | < 0.1 | 0.1 to 1 | Cc1cn2nc(-c3ccc4c(=O)n([C@H]5CCN(C)[C@H](C)C5)ncc4c3)cc(C)c2n1 [Compound 278] | < 0.1 | < 0.1
< 0.1 | < 0.1 | < 0.1 | Cc1cn2cc(-c3ccc4c(=O)n(C5CCNCC5)ccc4c3)cc(F)c2n1 [Compound 276, 6-(8-fluoro-2-methylimidazo[1,2-a]pyridin-6-yl)-2-(piperidin-4-yl)isoquinolin-1(2H)-one] | < 0.1 | < 0.1
1 to 10 | < 0.1 | 1 to 10 | Cc1cn2cc(-c3ccc4c(=O)n(C5CCNCC5)cnc4c3)ncc2n1 [Compound 297] | 1 to 10 | 1 to 10

More lines, now with the values behind:

Compound | IC50 [2] [µM] | IC50 [3] [µM] | IC50 [4] [µM] | AC50 [1, 5] [µM] | AC50 [1, 6] [µM]
CN1CCC(n2cnc3cc(-c4ccc5nn(C)cc5c4)ccc3c2=O)CC1 [Compound 208, 7-(2-methyl-2H-indazol-5-yl)-3-(1-methylpiperidin-4-yl)quinazolin-4(3H)-one] | > 10 | 0.1 to 1 | > 10 | > 10 | 1 to 10
Cc1cc(-c2ccc3c(=O)n(N4CCN(C)CC4)cnc3c2)cc2cn(C)nc12 [Compound 175, 7-(2,7-dimethyl-2H-indazol-5-yl)-3-(4-methylpiperazin-1-yl)quinazolin-4(3H)-one] | 1 to 10 | 1 to 10 | > 10 | > 10 | 1 to 10
Cn1cc2cc(-c3ccc4c(c3)CCN(C3CCNCC3)C4=O)cc(F)c2n1 [Compound 225] | > 10 | > 10 | > 10 | > 10 | > 10
CN1CCN(c2ccc3c(=O)n(-c4ccc5cn(C)nc5c4)cnc3c2)CC1 [Compound 178, 3-(2-methyl-2H-indazol-6-yl)-7-(4-methylpiperazin-1-yl)quinazolin-4(3H)-one] | > 10 | > 10 | > 10 | > 10 | > 10
Cc1cn2cc(-c3ccc4c(=O)n(C5CCNCC5)ncc4c3)c(C)cc2n1 [Compound 254] | 1 to 10 | 1 to 10 | 1 to 10 | 1 to 10 | 1 to 10
Cc1cc(-c2ccc3c(=O)n(C4CC(C)(C)NC(C)(C)C4)cnc3n2)cc2cn(C)nc12 [Compound 179] | > 10 | 1 to 10 | > 10 | > 10 | > 10
Cc1cc(-c2ccc3c(c2)CCN(C2CCNCC2)C3=O)cc2cn(C)nc12 [Compound 219] | 1 to 10 | < 0.1 | 1 to 10 | 1 to 10 | 1 to 10
Cc1cn2cc(-c3ccc4c(=O)n(C5CCNCC5)cnc4c3)c(C)cc2n1 [Compound 244] | > 10 | 0.1 to 1 | > 10 | > 10 | > 10
Cn1cc2ccc(-n3cnc4cc(NC5CCNCC5)ccc4c3=O)cc2n1 [Compound 204, 3-(2-methyl-2H-indazol-6-yl)-7-(piperidin-4-ylamino)quinazolin-4(3H)-one] | > 10 | > 10 | > 10 | > 10 | > 10
